Reference: patent US20100120886A1, “ARYL-SUBSTITUTED SULFONAMIDES FOR THE TREATMENT OF COGNITIVE OR FOOD INGESTION RELATED DISORDERS” (LABORATORIOS DEL DR. ESTEVE, S.A., priority 2007, published 2010)

Molecular target: T1, 5HT6 human recombinant receptor (Homo sapiens, UniProt P50406)
T1 construct: purchased Receptor Biology; host or cells: HEK-293 cell membranes
Assay: Binding with Serotonin Receptor 5HT6 ([3H]-LSD radioligand, HEK-293 cell membranes)
Settings: [3H]-LSD 2.7 nM, HEK-293 membranes; for inhibition at 0.01 µM: compound 10 nM; for inhibition at 0.01 µM / inhibition at 0.1 µM: 60 min, 37° C.; for inhibition at 0.1 µM: compound 100 nM; for Ki: non-linear regression EBDA/LIGAND
Procedure: Binding with Serotonin Receptor 5HT6
Cell membranes of HEK-293 cells expressing the 5HT6 human recombinant receptor were supplied by Receptor Biology. In said membranes the receptor concentration is 2.18 pmol/mg protein and the protein concentration is 9.17 mg/ml. The experimental protocol follows the method of B. L. Roth et al. [B. L. Roth, S. C. Craigo, M. S. Choudhary, A. Uluer, F. J. Monsma, Y. Shen, H. Y. Meltzer, D. R. Sibley: Binding of Typical and Atypical Antipsychotic Agents to 5-Hydroxytryptamine-6 and Hydroxytriptamine-7 Receptors. The Journal of Pharmacology and Experimental Therapeutics, 1994, 268, 1403] with slight changes. The commercial membrane is diluted (1:40 dilution) with the binding buffer: 50 mM Tris-HCl, 10 mM MgCl2, 0.5 mM EDTA (pH 7.4). The radioligand used is [^3H]-LSD at a concentration of 2.7 nM with a final volume of 200 μl. incubation is initiated by adding 100 μl of membrane suspension, (≈22.9 μg membrane protein), and is prolonged for 60 minutes at a temperature of 37° C. The incubation is ended by fast filtration in a Brandel Cell Harvester through fiber glass filters made by Schleicher & Schuell GF 3362 pretreated with a solution of polyethylenimine at 0.5%. The filters are washed three times with three milliliters of buffer Tris-HCl 50 mM pH 7.4. The filters are transferred to flasks and 5 ml of Ecoscint H liquid scintillation cocktail are added to each flask. The flasks are allowed to reach equilibrium for several hours before counting with a Wallac Winspectral 1414 scintillation counter. Non-specific binding is determined in the presence of 100 μM of serotonin. Tests were made in triplicate. The inhibition constants (Ki, nM) were calculated by non-linear regression analysis using the program EBDA/LIGAND [Munson and Rodbard, Analytical Biochemistry, 1980, 107, 220].

T1 sequence (P50406 whole entry): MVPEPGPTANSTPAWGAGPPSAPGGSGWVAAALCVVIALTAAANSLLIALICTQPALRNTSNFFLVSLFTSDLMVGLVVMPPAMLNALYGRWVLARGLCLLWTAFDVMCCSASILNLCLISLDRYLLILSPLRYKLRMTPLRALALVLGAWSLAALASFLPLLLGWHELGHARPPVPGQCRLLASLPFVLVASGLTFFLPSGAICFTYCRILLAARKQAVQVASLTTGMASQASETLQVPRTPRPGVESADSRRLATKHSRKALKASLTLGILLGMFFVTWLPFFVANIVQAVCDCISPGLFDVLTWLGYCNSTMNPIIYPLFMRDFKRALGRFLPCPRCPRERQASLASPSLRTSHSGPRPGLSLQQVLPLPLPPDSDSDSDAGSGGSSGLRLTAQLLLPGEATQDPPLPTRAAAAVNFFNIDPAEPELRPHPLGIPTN

CNCCc1cn(C)c2ccc(NS(=O)(=O)c3ccc4c(Cl)cccc4c3)cc12 [Example 6, 5-Chloro-naphthalene-2-sulfonic acid [1-methyl-3-(2-methylamino-ethyl)-1H-indol-5-yl]-amide] showed an inhibition at 0.01 µM of 39.7% and an inhibition at 0.1 µM of 79.8%.
CNCCc1c[nH]c2ccc(NS(=O)(=O)c3cccc4ccccc34)cc12 [Example 2, Naphthalene-1-sulfonic acid [3-(2-methylamino-ethyl)-1H-indol-5-yl]-amide] was tested, and the Ki was 2.9 nM, the inhibition at 0.01 µM was 83% and the inhibition at 0.1 µM was 91.2%.
For NCCc1c[nH]c2ccc(NS(=O)(=O)c3cccc4ccccc34)cc12 [Example 5, Naphthalene-1-sulfonic acid [3-(2-amino-ethyl)-1H-indol-5-yl]-amide], the Ki was 26.4 nM, the inhibition at 0.01 µM was 41.6% and the inhibition at 0.1 µM was 76.9%.
For CCNCCc1c[nH]c2ccc(NS(=O)(=O)c3cccc4ccccc34)cc12 [Example 1, Naphthalene-1-sulfonic acid [3-(2-ethylamino-ethyl)-1H-indol-5-yl]-amide], the Ki was 3 nM.
CCNCCc1c[nH]c2ccc(NS(=O)(=O)c3ccc4c(Cl)cccc4c3)cc12 [Example 3, 5-Chloro-naphthalene-2-sulfonic acid [3-(2-ethylamino-ethyl)-1H-indol-5-yl]-amide] showed a Ki of 2 nM, an inhibition at 0.01 µM of 60.1% and an inhibition at 0.1 µM of 82.9%.
In the case of CNCCc1c[nH]c2ccc(NS(=O)(=O)c3ccc4c(Cl)cccc4c3)cc12 [Example 4, 5-Chloro-naphthalene-2-sulfonic acid [3-(2-methylamino-ethyl)-1H-indol-5-yl]-amide], the Ki is reported as 2.1 ± 1.3 nM, the inhibition at 0.01 µM is reported as 64.9% and the inhibition at 0.1 µM is reported as 73.5%.
Cn1cc(CCN)c2cc(NS(=O)(=O)c3ccc4c(Cl)cccc4c3)ccc21 [Example 9, 5-Chloro-naphthalene-2-sulfonic acid [3-(2-amino-ethyl)-1-methyl-1H-indol-5-yl]-amide] showed an inhibition at 0.01 µM of 34.1% and an inhibition at 0.1 µM of 78%.
NCCc1c[nH]c2ccc(NS(=O)(=O)c3ccc4c(Cl)cccc4c3)cc12 [Example 8, 5-Chloro-naphthalene-2-sulfonic acid [3-(2-amino-ethyl)-1H-indol-5-yl]-amide] gave a Ki of 1.4 nM, an inhibition at 0.01 µM of 65.6% and an inhibition at 0.1 µM of 86.1%.
NCCc1c[nH]c2ccc(NS(=O)(=O)c3ccc4ccccc4c3)cc12 [Example 7, Naphthalene-2-sulfonic acid [3-(2-amino-ethyl)-1H-indol-5-yl]-amide] gave a Ki of 7.1 ± 1.1 nM, an inhibition at 0.01 µM of 66% and an inhibition at 0.1 µM of 84.6%.
